This note sets out measurements from ChEMBL document CHEMBL1201862, “PubChem BioAssay data set” (2004).

Holding throughout (assay): NCI-60 cell line screen, 48 h
Test [1] has as its system A498.
Test [2] concerns CAKI-1.
Test [3] relates to HCT-116.
The subject of test [4] is HCT-15.
Test [5] concerns HT-29.
The subject of test [6] is LOX IMVI.
For test [7], the system named is LXFL 529.
The subject of test [8] is Malme-3M.
Test [9] has as its system RXF 393.
The subject of test [10] is SF-295.
The test system of test [11] is SF-539.
Test [12] concerns SK-MEL-2.
The test system of test [13] is SK-OV-3.
The subject of test [14] is SNB-19.
Test [15] concerns SR.
Test [16] concerns DU-145.
Test [17] deals with MCF7.
Test [18] relates to MDA-MB-231.
Test [19] deals with MDA-MB-435.
Test [20] has as its system MDA-N.

Structures are written as SMILES.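 Compound exposure: 48 hours, 5 concentrations, 96-well plates. At the GI50, growth is halved.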 Activity calls are given as the source filed them. Cut-off read from the data, not from the text of the source: active = GI50 up to about 1.1 µM and inactive = higher. A value given as a limit tells only on which side of the number the result lay.

`Nc1nnc2nc(CC(=O)/C=C/c3ccccc3)c(=O)[nH]n12`: the GI50 in test [1] was > 100 µM (inactive); in [2], > 100 µM (inactive); in test [3], > 100 µM (inactive); in [4], above 100 µM; in test [5] it was > 100 µM (inactive); in test [6] it was > 100 µM (inactive). Also, the GI50 in test [7], in [8], in [9], in [10], in test [11] and in test [12] was > 100 µM (inactive) throughout. The GI50 in [13] and in test [14] was > 100 µM (inactive) throughout.

Take `COc1ccc(C2NCCc3c2[nH]c2ccccc32)cc1` (configuration not stated): the GI50 in [3] is 51.5 µM (inactive); in [4] it was above 100 µM; in test [5], > 100 µM (inactive); in test [6], > 100 µM (inactive); in test [7] it was 95.3 µM (inactive); in test [8], 27 µM (inactive). Moreover, the GI50 in test [9] was 67.1 µM (inactive); in test [10], > 100 µM (inactive); in test [11], > 100 µM (inactive); in test [13] it was > 100 µM (inactive); in [14] it was > 100 µM (inactive); in test [15] it was 28.2 µM (inactive).

On to `COc1cc2cc[n+](C)c(Cc3ccccc3)c2cc1OC`, for which the GI50 in test [1] is > 100 µM (inactive); in test [3] it was > 100 µM (inactive); in test [4] it was above 100 µM; in test [5] it was > 100 µM (inactive); in test [6], > 100 µM (inactive); in [7] it was > 100 µM (inactive). For the same compound, the GI50 in test [8], in test [9], in [10], in test [11], in test [12] and in [13] was > 100 µM (inactive) in each case. Also, in test [14], the GI50 was > 100 µM (inactive).

`CCOC(=O)/C(O)=C/c1cc(OC)cc(=O)o1`: the GI50 in test [1] is > 100 µM (inactive); in [2], > 100 µM (inactive); in test [3] it was > 100 µM (inactive); in test [4], above 100 µM; in [5] it was > 100 µM (inactive); in [6], > 100 µM (inactive). The GI50 in [7], in [8], in test [9], in test [10], in test [11] and in [12] was > 100 µM (inactive) throughout. In addition, the GI50 in [13] and in test [14] was > 100 µM (inactive) in each case.

Turning to `CC(=O)NC(CCCN)C(=O)NCc1ccccc1` (configuration not stated), the GI50 is > 100 µM (inactive) in [1]; > 100 µM (inactive) in [2]; > 100 µM (inactive) in test [3]; above 100 µM in test [4]; > 100 µM (inactive) in [5]; > 100 µM (inactive) in [6]. Moreover, the GI50 in test [7], in [8], in test [9], in [10], in test [11] and in test [12] was > 100 µM (inactive) each time. Moreover, the GI50 in [13] and in test [14] was > 100 µM (inactive) in each case.

Consider `NC(=O)NC(=O)C1CCC(=O)N1S(=O)(=O)c1ccc(Cl)cc1` (configuration not stated), for which the GI50 was > 100 µM (inactive) in test [2]; > 100 µM (inactive) in test [3]; above 100 µM in test [4]; > 100 µM (inactive) in test [5]; > 100 µM (inactive) in [7]; > 100 µM (inactive) in [8]. Further, the GI50 in [9], in test [10], in test [11], in [12], in [13] and in test [14] was > 100 µM (inactive) throughout. The GI50 in [15] was > 100 µM (inactive).

As for `O=C1N2Cc3c4ccc5c3CN3C(=O)N6Cc7c(ccc(c7CN1C6(c1ccccc1)C23c1ccccc1)OCCOCCOc1cc(Br)c(Br)cc1OCCOCCO4)OCCOCCOc1cc(Br)c(Br)cc1OCCOCCO5` (configuration not stated), the GI50 was > 100 µM (inactive) in test [2]; > 100 µM (inactive) in test [3]; 25.4 µM in test [4]; > 100 µM (inactive) in test [5]; 67.3 µM (inactive) in [7]; 75.5 µM (inactive) in test [8]. The GI50 is > 100 µM (inactive) in test [9]; 20.1 µM (inactive) in test [11]; 91 µM (inactive) in test [12]; > 100 µM (inactive) in test [13]; > 100 µM (inactive) in test [14]; > 100 µM (inactive) in [15].

Consider `C/C(CC(O)(C(F)(F)Cl)C(F)(F)Cl)=N\Nc1ccccc1`, for which the GI50 in [1] was 40 µM (inactive); in test [2] it was 22.2 µM (inactive); in [16] it was 49 µM (inactive); in test [3], 34.5 µM (inactive); in [4] it was 32.1 µM; in test [5], 42.9 µM (inactive). The GI50 was 27.5 µM (inactive) in test [6]; 23.2 µM (inactive) in [17]; 47.6 µM (inactive) in test [18]; 31.9 µM (inactive) in test [19]; 43.6 µM (inactive) in test [20]; 32.4 µM (inactive) in [8]. Further, the GI50 in test [9] was 19.2 µM (inactive); in test [10], 42.3 µM (inactive); in [11], 32.3 µM (inactive); in test [12], 21.5 µM (inactive); in [13] it was 29.4 µM (inactive); in test [14] it was 36.9 µM (inactive). Moreover, the GI50 in [15] is 39.1 µM (inactive).

As to `O=C(O)C(Br)C(Br)c1ccccc1[N+](=O)[O-]` (configuration not stated), the GI50 in test [1] was > 100 µM (inactive); in test [2], > 100 µM (inactive); in test [16] it was > 100 µM (inactive); in [3], > 100 µM (inactive); in test [4], above 100 µM; in [5], > 100 µM (inactive). Also, the GI50 in [6], in test [17], in test [18], in [19], in test [20] and in test [8] was > 100 µM (inactive) throughout. Further, the GI50 in [9], in test [10], in test [11], in [12], in [13] and in [14] was > 100 µM (inactive) each time. In test [15], the GI50 is > 100 µM (inactive).

Regarding `CC1=C(C(=O)Nc2cc(F)c(F)cc2F)C(c2ccc(N(C)C)cc2)C(C(=O)Nc2cc(F)c(F)cc2F)=C(C)N1`, the GI50 was 19.1 µM (inactive) in test [1]; 13.8 µM (inactive) in [2]; 30.3 µM (inactive) in test [5]; 31.8 µM (inactive) in test [6]; 19.3 µM (inactive) in test [7]; 32.7 µM (inactive) in test [8]. Besides, the GI50 is 17.1 µM (inactive) in [9]; 24.3 µM (inactive) in test [10]; 18.2 µM (inactive) in [11]; 28.8 µM (inactive) in test [12]; 30.1 µM (inactive) in [13]; 38.7 µM (inactive) in test [14].

Consider `Cn1c(=O)c(NC(=O)C(Cl)(Cl)Cl)nc2ccccc21`, for which the GI50 in test [1] is > 100 µM (inactive); in test [2], > 100 µM (inactive); in [3], > 100 µM (inactive); in test [4] it was above 100 µM; in [5] it was > 100 µM (inactive); in test [6] it was > 100 µM (inactive). In addition, the GI50 is > 100 µM (inactive) in [7]; > 100 µM (inactive) in [8]; 81.8 µM (inactive) in [9]; > 100 µM (inactive) in [10]; > 100 µM (inactive) in test [11]; > 100 µM (inactive) in test [12]. Further, the GI50 in test [13] and in test [14] was > 100 µM (inactive) throughout.

Regarding `C=CCN1C(=O)CS/C1=N\NC(=O)c1c(C)nc2sccn12`, the GI50 in test [2] was > 100 µM (inactive); in test [3], > 100 µM (inactive); in test [4], above 100 µM; in [5], > 100 µM (inactive); in test [6] it was > 100 µM (inactive); in [7], > 100 µM (inactive). Further, the GI50 in test [8], in test [9], in test [10], in [11], in [12] and in test [13] was > 100 µM (inactive) throughout. The GI50 in test [14] and in [15] was > 100 µM (inactive) each time.

On to `CCN(CC)CCOC(=O)c1ccc(N)cc1.CCOC(=O)Nc1ccc(S(=O)(=O)OC)cc1.CCOC(=O)Nc1ccc(S(=O)(=O)OC)cc1.Nc1ccc(C(=O)O)c(O)c1`, for which the GI50 is > 100 µM (inactive) in [1]; > 100 µM (inactive) in test [2]; > 100 µM (inactive) in [3]; above 100 µM in [4]; > 100 µM (inactive) in test [5]; > 100 µM (inactive) in test [6]. Further, the GI50 in test [7], in [8], in test [9], in [10], in test [11] and in [12] was > 100 µM (inactive) each time. The GI50 in test [13] and in [14] was > 100 µM (inactive) throughout.

As to `CC(C)C1COC(C(C)(C)C2=N[C@@H](C(C)C)CO2)=N1` (some centres not stated), the GI50 is > 100 µM (inactive) in [3]; above 100 µM in [4]; > 100 µM (inactive) in test [5]; > 100 µM (inactive) in [6]; > 100 µM (inactive) in test [7]; > 100 µM (inactive) in test [8]. Also, the GI50 in test [9], in test [10], in [11], in [12], in test [13] and in [14] was > 100 µM (inactive) throughout. Further, the GI50 in test [15] is > 100 µM (inactive).
